According to publication PMC5431190, “Investigation of cationicity and structure of pseudin-2 analogues for enhanced bacterial selectivity and anti-inflammatory activity” (Scientific Reports, 2017):
≈ marks a conversion by molar mass, not a printed value. Residues, ends and D or L forms follow the SMILES beside them.

How the values were obtained:
[1] = test system: S. aureus 3108(R) (MRSA 3108); type: cell-based, Staphylococcus aureus; settings: multidrug-resistant strain; 1% peptone media, 16 h at 37 °C
[2] = test system: Staphylococcus aureus KCTC 1621; type: cell-based; settings: standard strain KCTC 1621; 1% peptone media, 16 h at 37 °C; three independent experiments in triplicate, SD 14.0%
Description: (§1) Four Gram-negative bacteria species (Escherichia coli KCTC 1682, Acinetobacter baumannii KCTC 2508, Pseudomonas aeruginosa KCTC 1637 and Salmonella typhimurium KCTC 1926) and three Gram-positive bacteria species (Staphylococcus aureus KCTC 1621, Bacillus subtilis KCTC 3028 and Staphylococcus epidermidis KCTC 1917) were procured from the Korean Collection for Type Cultures (KCTC). Multi-drug-resistant Gram-negative bacteria (Salmonella typhimurium CCARM 8003 and 8007, Escherichia coli CCARM 1229 and 1238, Pseudomonas aeruginosa CCARM 2002 and 2095 and Acinetobacter baumannii CCARM 12035 and 12036) were obtained from the Culture Collection of Antibiotic-Resistant Microbes (CCARM). To determine MICs, bacteria were cultured in Luria-Bertani (LB) medium for overnight at 37 °C. An aliquot of the culture was incubated in 1% peptone media at 37 °C until mid-log phase. 100 μl of serial 2-fold diluted peptides were treated in 96 well plates and added to 100 μl of 2 × 10^6 CFU/ml bacterial suspensions in 1% peptone media for 16 h at 37 °C.

[3] = test system: Bacillus subtilis KCTC 3028; type: cell-based; settings: standard strain KCTC 3028; 1% peptone media, 16 h at 37 °C; three independent experiments in triplicate, SD 14.0%
Description: as §1

[4] = test system: Escherichia coli CCARM 1238 (MDREC 1238); type: cell-based; settings: multidrug-resistant strain; 1% peptone media, 16 h at 37 °C
Description: as §1

[5] = test system: Pseudomonas aeruginosa CCARM 2002 (MDRPA 2002); type: cell-based; settings: multidrug-resistant strain; 1% peptone media, 16 h at 37 °C
Description: as §1

[6] = test system: Staphylococcus epidermidis KCTC 1917; type: cell-based; settings: standard strain KCTC 1917; 1% peptone media, 16 h at 37 °C; three independent experiments in triplicate, SD 14.0%
Description: as §1

[7] = test system: Salmonella typhimurium CCARM 8003 (MDRST 8003); type: cell-based; settings: multidrug-resistant strain; 1% peptone media, 16 h at 37 °C
Description: as §1

[8] = test system: Pseudomonas aeruginosa KCTC 1637; type: cell-based; settings: standard strain KCTC 1637; 1% peptone media, 16 h at 37 °C; three independent experiments in triplicate, SD 14.0%
Description: as §1

[9] = test system: Salmonella typhimurium KCTC 1926; type: cell-based; settings: standard strain KCTC 1926; 1% peptone media, 16 h at 37 °C; three independent experiments in triplicate, SD 14.0%
Description: as §1

[10] = test system: Acinetobacter baumannii CCARM 12035 (MDRAB 12035); type: cell-based; settings: multidrug-resistant strain; 1% peptone media, 16 h at 37 °C
Description: as §1

[11] = test system: Pseudomonas aeruginosa CCARM 2095 (MDRPA 2095); type: cell-based; settings: multidrug-resistant strain; 1% peptone media, 16 h at 37 °C
Description: as §1

[12] = test system: Gram-negative bacteria (E. coli, A. baumannii, P. aeruginosa, S. typhimurium); type: cell-based; settings: average over the four Gram-negative standard strains
Description: as §1

[13] = test system: Acinetobacter baumannii KCTC 2508; type: cell-based; settings: standard strain KCTC 2508; 1% peptone media, 16 h at 37 °C; three independent experiments in triplicate, SD 14.0%
Description: as §1

[14] = test system: Escherichia coli CCARM 1229 (MDREC 1229); type: cell-based; settings: multidrug-resistant strain; 1% peptone media, 16 h at 37 °C
Description: as §1

[15] = test system: Gram-positive bacteria (S. aureus, B. subtilis, S. epidermidis); type: cell-based; settings: average over the three Gram-positive standard strains
Description: as §1

[16] = test system: Escherichia coli KCTC 1682; type: cell-based; settings: standard strain KCTC 1682; 2-fold dilutions, 1% peptone media, 2 × 10^6 CFU/ml suspension, 16 h at 37 °C; three independent experiments in triplicate, SD 14.0%
Description: as §1

[17] = test system: Acinetobacter baumannii CCARM 12036 (MDRAB 12036); type: cell-based; settings: multidrug-resistant strain; 1% peptone media, 16 h at 37 °C
Description: as §1

[18] = test system: Salmonella typhimurium CCARM 8007 (MDRST 8007); type: cell-based; settings: multidrug-resistant strain; 1% peptone media, 16 h at 37 °C
Description: as §1

[19] = test system: S. aureus 3089(R) (MRSA 3089); type: cell-based, Staphylococcus aureus; settings: multidrug-resistant strain; 1% peptone media, 16 h at 37 °C
[20] = test system: S. aureus 3126(R) (MRSA 3126); type: cell-based, Staphylococcus aureus; settings: multidrug-resistant strain; 1% peptone media, 16 h at 37 °C
[21] = test system: human red blood cells (hRBCs); test: Haemolytic activity; type: cell-based; settings: 1 h at 37 °C
Description: Peptide-induced lysis of human red blood cells (hRBCs) was determined as follows. Fresh hRBCs were washed 2–3 times with phosphate-buffered saline (PBS) by centrifugation for 5 min at 2500 rpm at 4 °C. Peptides in PBS were incubated with 4% (v/v) hRBCs for 1 h at 37 °C. Samples were then centrifuged for 5 min at 1000 × g. The absorbance of the supernatant at 405 nm was used as a measure of haemolysis. As a positive control, 100% haemolysis was obtained by treating hRBCs with 0.1% Triton X-100.

| Compound | MIC, MRSA 3108 [1] | MIC, S. aureus [2] | MIC, B. subtilis [3] | MIC, MDREC 1238 [4] | MIC, MDRPA 2002 [5] | MIC, S. epidermidis [6] | MIC, MDRST 8003 [7] | MIC, P. aeruginosa [8] | MIC, S. typhimurium [9] | MIC, MDRAB 12035 [10] | MIC, MDRPA 2095 [11] | Average MIC, Gram-negative [12] | MIC, A. baumannii [13] | MIC, MDREC 1229 [14] | Average MIC, Gram-positive [15] | MIC, E. coli [16] | MIC, MDRAB 12036 [17] | MIC, MDRST 8007 [18] | MIC, MRSA 3089 [19] | MIC, MRSA 3126 [20] | further results |
| --- | --- | --- | --- | --- | --- | --- | --- | --- | --- | --- | --- | --- | --- | --- | --- | --- | --- | --- | --- | --- | --- |
| CC[C@H](C)[C@H](NC(=O)CN)C(=O)NCC(=O)N[C@@H](C)C(=O)N[C@H](C(=O)N[C@@H](CC(C)C)C(=O)N[C@@H](CCCCN)C(=O)N[C@H](C(=O)N[C@@H](CC(C)C)C(=O)N[C@H](C(=O)N[C@H](C(=O)NCC(=O)N[C@@H](CC(C)C)C(=O)N1CCC[C@H]1C(=O)N[C@@H](C)C(=O)N[C@@H](CC(C)C)C(=O)N[C@H](C(=O)N[C@@H](CO)C(=O)N[C@@H](Cc1c[nH]c2ccccc12)C(=O)N[C@H](C(=O)N[C@@H](CCCCN)C(=O)N[C@@H](CCCNC(=N)N)C(=O)N[C@@H](CCCCN)C(=O)N[C@@H](CCCNC(=N)N)C(=O)N[C@@H](CCC(N)=O)C(=O)N[C@@H](CCC(N)=O)C(N)=O)[C@@H](C)CC)[C@@H](C)CC)[C@@H](C)O)[C@@H](C)O)C(C)C)C(C)C [Melittin, reference compound] | 2 µM (≈ 5.69 µg/mL) | 4 µM (≈ 11.4 µg/mL) | 4 µM (≈ 11.4 µg/mL) | 4 µM (≈ 11.4 µg/mL) | 2 µM (≈ 5.69 µg/mL) | 2 µM (≈ 5.69 µg/mL) | 8 µM (≈ 22.8 µg/mL) | 4 µM (≈ 11.4 µg/mL) | 8 µM (≈ 22.8 µg/mL) | 4 µM (≈ 11.4 µg/mL) | 2 µM (≈ 5.69 µg/mL) | 5 µM | 4 µM (≈ 11.4 µg/mL) | 4 µM (≈ 11.4 µg/mL) | 3.33 µM | 4 µM (≈ 11.4 µg/mL) | 4 µM (≈ 11.4 µg/mL) | 8 µM (≈ 22.8 µg/mL) | 2 µM (≈ 5.69 µg/mL) | 2 µM (≈ 5.69 µg/mL) | – |
| CC[C@H](C)[C@H](NC(=O)[C@H](C)NC(=O)[C@H](CCCCN)NC(=O)[C@H](Cc1c[nH]cn1)NC(=O)[C@@H](NC(=O)[C@@H]1CCCN1C(=O)[C@H](CCC(N)=O)NC(=O)[C@H](Cc1ccccc1)NC(=O)[C@@H](NC(=O)[C@H](CCCCN)NC(=O)[C@H](CCCCN)NC(=O)[C@H](CC(C)C)NC(=O)[C@H](C)NC(=O)[C@H](CC(N)=O)NC(=O)[C@H](CC(C)C)NC(=O)CN)C(C)C)[C@@H](C)CC)C(=O)N[C@@H](CCCCN)C(=O)N[C@@H](CCCCN)C(=O)N[C@H](C(=O)N[C@@H](CC(N)=O)C(=O)N[C@@H](CC(N)=O)C(=O)N[C@@H](Cc1c[nH]cn1)C(=O)N[C@H](C(=O)N[C@@H](CCC(N)=O)C(=O)O)C(C)C)[C@@H](C)CC [Ps-K14-K18-P] (H-GLNALKKVFQPIHKAIKKINNHVQ-OH) | 32 µM (≈ 87.7 µg/mL) | 32 µM (≈ 87.7 µg/mL) | 32 µM (≈ 87.7 µg/mL) | 8 µM (≈ 21.9 µg/mL) | 16 µM (≈ 43.8 µg/mL) | 64 µM (≈ 175 µg/mL) | 16 µM (≈ 43.8 µg/mL) | 8 µM (≈ 21.9 µg/mL) | 8 µM (≈ 21.9 µg/mL) | 16 µM (≈ 43.8 µg/mL) | 16 µM (≈ 43.8 µg/mL) | 7 µM | 8 µM (≈ 21.9 µg/mL) | 8 µM (≈ 21.9 µg/mL) | 42.67 µM | 4 µM (≈ 11 µg/mL) | 8 µM (≈ 21.9 µg/mL) | 16 µM (≈ 43.8 µg/mL) | 32 µM (≈ 87.7 µg/mL) | 64 µM (≈ 175 µg/mL) | haemolysis at 400 μM ([21]; 400 μM peptide, 4% hRBCs, PBS, 100% = 0.1% Triton X-100): 0.3%; MHC (minimal peptide concentration that produces haemolysis) ([21]; 4% (v/v) hRBCs in PBS, absorbance 405 nm, printed in both Gram-negative and Gram-positive sections): 400 µM |
